pIC50: −log10 of the molar value. Where two headings read alike, the source gives them in different places.
Test system: IL-1β production in PMA-differentiated THP-1 cells
Assay: IL-1β production in PMA-differentiated THP-1 cells stimulated with gramicidin (hTHP-1 assay, 2% fetal bovine serum; Procedures 1-3)
Format: cell-based, human
Conditions: class symbols, read-out: hTHP-1 IC50 (Average IC50 of compounds in hTHP-1 assay)
Summary of the method: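 PMA-differentiated (20 ng/ml, 16-18 h) THP-1 cells in RPMI with 2% FBS, 50,000 cells/well, preincubated 1 h with compound (final 100–0.0017 μM, 0.37% DMSO), then stimulated with 5 μM gramicidin for 2 h. Supernatant IL-1β measured by HTRF.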

[1] = hTHP-1 assay containing 2% fetal bovine serum
[2] = Homo sapiens, THP-1, hTHP-1 assay containing 2% fetal bovine serum

Structure (SMILES)	pIC50 [1]	pIC50 [2]
Cc1cc(S(N)(=O)=NC(=O)Nc2c3c(cc4c2CCC4)CCC3)ccc1C(C)(C)O (single isomer, unassigned) [Example 162]	6.00 to 6.70	
Cc1oc(S(N)(=O)=NC(=O)Nc2c(C(C)C)cc(C#N)c(F)c2C(C)C)cc1C(C)(C)O (single isomer, unassigned) [Example 81]	7.40 to 8.10	
CN(C(=O)N=S(N)(=O)c1cnc(C(C)(C)O)s1)c1c2c(cc3c1CCC3)CCC2 (stereo not drawn) [Example 248, N′-((1,2,3,5,6,7-hexahydro-s-indacen-4-yl)(methyl)carbamoyl)-2-(2-hydroxypropan-2-yl)thiazole-5-sulfonimidamide]		4.52 to 5.30
CC(C)(O)c1cccc(S(N)(=O)=NC(=O)Nc2c3c(c(F)c4c2CCC4)CCC3)c1 (single isomer, unassigned) [Example 128]	6.00 to 6.70	
CC(C)(O)c1nc(CO)c(S(N)(=O)=NC(=O)Nc2c3c(c(C#N)c4c2CCC4)CCC3)s1 (single isomer, unassigned) [Example 191]	4.52 to 5.30	
Cc1oc(S(N)(=O)=NC(=O)Nc2c(C(C)C)cc(C#N)c(F)c2C(C)C)cc1C(C)(C)O (single isomer, unassigned) [Example 82]	6.00 to 6.70	
CC(C)c1ccc(F)c(C(C)C)c1NC(=O)N=S(N)(=O)c1cnc(C(C)(C)O)s1 (stereo not drawn) [Example 62, N′-((3-fluoro-2,6-diisopropylphenyl)carbamoyl)-2-(2-hydroxypropan-2-yl)thiazole-5-sulfonimidamide]		6.70 to 7.40
CC(C)c1cc(C#N)cc(C(C)C)c1NC(=O)N=S(N)(=O)c1ccc(C(C)(C)O)s1 (single isomer, unassigned) [Example 186]	6.70 to 7.40	
CC(C)(O)c1nc(CO)c(S(N)(=O)=NC(=O)Nc2c3c(c(C#N)c4c2CCC4)CCC3)s1 (single isomer, unassigned) [Example 190]	6.00 to 6.70	
CC(C)(O)c1ncc(S(N)(=O)=NC(=O)Nc2c3c(c(OC(F)F)c4c2CCC4)CCC3)s1 (single isomer, unassigned) [Example 115]	5.30 to 6.00	
Cc1nc(C(C)(C)O)sc1S(N)(=O)=NC(=O)Nc1c2c(c(F)c3c1CCC3)CCC2 (stereo not drawn) [Example 59, N′-((8-fluoro-1,2,3,5,6,7-hexahydro-s-indacen-4-yl)carbamoyl)-2-(2-hydroxypropan-2-yl)-4-methylthiazole-5-sulfonimidamide]		7.40 to 8.10
CC(C)c1cc(OC(F)F)cc(C(C)C)c1NC(=O)N=S(N)(=O)c1ncc(C(C)(C)O)s1 (stereo not drawn) [Example 38, N′-(4-(difluoromethoxy)-2,6-diisopropylphenylcarbamoyl)-5-(2-hydroxypropan-2-yl)thiazole-2-sulfonimidamide]		6.70 to 7.40

The next lines start with the values.

pIC50 [1]	pIC50 [2]	Structure (SMILES)
6.00 to 6.70		CC(C)(O)c1cnc(S(N)(=O)=NC(=O)Nc2c3c(c(Br)c4c2CCC4)CCC3)s1 (single isomer, unassigned) [Example 351, (S) or (R)-N′-((8-bromo-1,2,3,5,6,7-hexahydro-s-indacen-4-yl)carbamoyl)-5-(2-hydroxypropan-2-yl)thiazole-2-sulfonimidamide]
5.30 to 6.00		CC(C)(O)c1cc(S(N)(=O)=NC(=O)Nc2c3c(cc4c2CCC4)CCC3)nn1-c1ccccc1 (single isomer, unassigned) [Example 308, (S) or (R)-N′-((1,2,3,5,6,7-hexahydro-s-indacen-4-yl)carbamoyl)-5-(2-hydroxypropan-2-yl)-1-phenyl-1H-pyrazole-3-sulfonimidamide]
5.30 to 6.00		CC(C)(O)c1ccc(S(N)(=O)=NC(=O)Nc2c3c(cc4c2CCC4)CCC3)cn1 (single isomer, unassigned) [Example 319, (S) or (R)-N′-((1,2,3,5,6,7-hexahydro-s-indacen-4-yl)carbamoyl)-6-(2-hydroxypropan-2-yl)pyridine-3-sulfonimidamide]
5.30 to 6.00		CN(C)Cc1cc(F)c(S(N)(=O)=NC(=O)Nc2c3c(cc4c2CCC4)CCC3)s1 (single isomer, unassigned) [Example 382, (S) or (R)-5-((dimethylamino)methyl)-3-fluoro-N′-((1,2,3,5,6,7-hexahydro-s-indacen-4-yl)carbamoyl)thiophene-2-sulfonimidamide]
5.30 to 6.00		CC(=O)c1ncc(S(N)(=O)=NC(=O)Nc2c3c(cc4c2CCC4)CCC3)s1 (single isomer, unassigned) [Example 417, (R) or (S)-2-acetyl-N′-((1,2,3,5,6,7-hexahydro-s-indacen-4-yl)carbamoyl)thiazole-5-sulfonimidamide]
6.00 to 6.70		CC(C)(O)c1csc(S(N)(=O)=NC(=O)Nc2c3c(cc4c2CC4)CCC3)n1 (single isomer, unassigned) [Example 342, (R) or (S)-4-(2-hydroxypropan-2-yl)-N′-((2,4,5,6-tetrahydro-1H-cyclobuta[f]inden-3-yl)carbamoyl)thiazole-2-sulfonimidamide]
4.52 to 5.30		COC(C)(C)c1ccc(S(N)(=O)=NC(=O)Nc2c3c(cc4c2CCC4)CCC3)cc1 (single isomer, unassigned) [Example 400, (S) or (R)-N′-((1,2,3,5,6,7-hexahydro-s-indacen-4-yl)carbamoyl)-4-(2-methoxypropan-2-yl)benzenesulfonimidamide]
4.52 to 5.30		Cc1nc(C(C)(C)O)ccc1S(N)(=O)=NC(=O)Nc1c2c(cc3c1CCC3)CCC2 (single isomer, unassigned) [Example 346, (R) or (S)-N′-((1,2,3,5,6,7-hexahydro-s-indacen-4-yl)carbamoyl)-6-(2-hydroxypropan-2-yl)-2-methylpyridine-3-sulfonimidamide]
	6.00 to 6.70	COC(C)(C)c1ccc(S(N)(=O)=NC(=O)Nc2c3c(cc4c2CCC4)CCC3)cc1 (stereo not drawn) [Example 274, N′-(1,2,3,5,6,7-hexahydro-s-indacen-4-ylcarbamoyl)-4-(2-methoxypropan-2-yl)benzenesulfonimidamide]

Source: US11724992B2 (Novartis AG, priority 2017, dated 2023)
